Measurements from paper PMC7854685, “Histone Parylation factor 1 contributes to the inhibition of PARP1 by cancer drugs” (Nature Communications, 2021).
Where “and” joins values, the source holds several entries; their conditions need not be identical. Equal entries are not always repeated. Entries after “also recorded” stand apart in the source; their conditions may differ. Where two headings read alike, the source gives them in different places. Marks after values point to notes of the source that are not given here.

What was measured:
PARP2 [1] = target: T1, PARP2 (Homo sapiens, UniProt Q9UGN5); test: Fluorescence polarization association/dissociation of fl-Ola, with p18mer or Nuc165, with or without HPF1; type: binding; design: On (individual replicates): unit not given here;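 further: fluorescence polarization read every minute over 1000 min, association and dissociation traces fitted to a single exponential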
T1 construct: Wild-type PARP1 and PARP2 were expressed and purified as previously described; made in house
T1 sequence (Q9UGN5 whole entry): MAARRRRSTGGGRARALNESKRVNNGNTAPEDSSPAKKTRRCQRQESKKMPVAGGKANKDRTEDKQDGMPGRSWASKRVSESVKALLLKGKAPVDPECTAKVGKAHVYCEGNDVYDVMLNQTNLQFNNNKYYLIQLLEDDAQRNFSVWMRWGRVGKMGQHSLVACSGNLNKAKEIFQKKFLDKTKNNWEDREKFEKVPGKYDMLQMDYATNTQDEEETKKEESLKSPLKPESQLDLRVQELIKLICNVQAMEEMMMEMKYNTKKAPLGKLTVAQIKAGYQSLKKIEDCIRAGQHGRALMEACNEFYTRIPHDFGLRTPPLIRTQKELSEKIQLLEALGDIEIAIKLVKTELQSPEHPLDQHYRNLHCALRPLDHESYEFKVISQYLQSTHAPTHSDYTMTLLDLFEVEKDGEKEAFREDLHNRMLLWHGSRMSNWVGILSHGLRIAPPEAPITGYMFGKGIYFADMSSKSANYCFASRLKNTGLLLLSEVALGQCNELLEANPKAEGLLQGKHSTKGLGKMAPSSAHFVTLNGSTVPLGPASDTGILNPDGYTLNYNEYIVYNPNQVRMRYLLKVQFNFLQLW

PARP1 [2] = target: T2, PARP1 (Homo sapiens, UniProt P09874); test: as above; type: binding; design: Wild-type PARP1 and PARP2 were expressed and purified as previously described; made in house; on rate (observed, single run): unit not given here
T2 sequence (P09874 whole entry): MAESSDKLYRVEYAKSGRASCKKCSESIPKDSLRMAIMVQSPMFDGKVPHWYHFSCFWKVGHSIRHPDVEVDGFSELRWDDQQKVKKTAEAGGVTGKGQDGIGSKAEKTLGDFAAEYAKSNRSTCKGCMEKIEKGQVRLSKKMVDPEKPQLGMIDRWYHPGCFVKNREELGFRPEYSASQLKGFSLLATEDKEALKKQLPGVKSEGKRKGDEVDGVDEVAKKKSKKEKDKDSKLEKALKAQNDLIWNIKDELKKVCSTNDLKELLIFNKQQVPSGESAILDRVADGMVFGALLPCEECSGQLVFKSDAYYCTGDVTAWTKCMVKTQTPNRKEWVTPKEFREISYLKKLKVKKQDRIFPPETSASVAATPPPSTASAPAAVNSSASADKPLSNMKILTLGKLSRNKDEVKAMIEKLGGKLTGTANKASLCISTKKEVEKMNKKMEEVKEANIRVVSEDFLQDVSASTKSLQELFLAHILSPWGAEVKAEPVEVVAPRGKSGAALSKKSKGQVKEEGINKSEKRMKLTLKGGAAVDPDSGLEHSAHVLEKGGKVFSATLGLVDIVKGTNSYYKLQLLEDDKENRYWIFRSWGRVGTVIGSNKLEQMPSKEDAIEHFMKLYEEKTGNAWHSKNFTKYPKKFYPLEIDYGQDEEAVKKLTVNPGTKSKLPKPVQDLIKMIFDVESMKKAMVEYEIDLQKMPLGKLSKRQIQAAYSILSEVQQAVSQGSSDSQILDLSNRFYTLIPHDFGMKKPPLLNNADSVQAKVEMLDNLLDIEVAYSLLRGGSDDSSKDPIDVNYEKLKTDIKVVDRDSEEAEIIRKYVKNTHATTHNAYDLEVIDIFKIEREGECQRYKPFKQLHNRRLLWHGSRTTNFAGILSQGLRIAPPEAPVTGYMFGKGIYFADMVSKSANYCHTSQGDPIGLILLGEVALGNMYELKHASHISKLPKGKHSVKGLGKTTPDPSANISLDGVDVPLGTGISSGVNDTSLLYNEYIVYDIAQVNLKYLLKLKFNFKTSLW

PARP1 [3] = target: T2, PARP1; test: Release of fluorescently labeled p18mer DNA (fluorescence polarization) upon NAD+ addition, KI determination for PARPi, with or without HPF1; type: biochemical; design: Wild-type PARP1 and PARP2 were expressed and purified as previously described; made in house;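 on KI: PARP1 bound to fluorescein-tagged DNA and preincubated with inhibitor, then high NAD+ added, drop in fluorescence polarization tracked as the DNA dissociates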;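 on Ki average: PARP1 bound to fluorescein-tagged DNA and preincubated with inhibitor, then high NAD+ added, drop in fluorescence polarization tracked as the DNA dissociates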;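 on koff (est) average: PARP1 bound to fluorescein-tagged DNA and preincubated with inhibitor, then high NAD+ added, drop in fluorescence polarization tracked as the DNA dissociates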;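 on kon ratio: PARP1 bound to fluorescein-tagged DNA and preincubated with inhibitor, then high NAD+ added, drop in fluorescence polarization tracked as the DNA dissociates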;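 on slope: slope of the inhibitor-concentration replot from which KI is derived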
Procedure: (§1) Starting with a complex of PARP1 or PARP2 bound to a PARPi and fluorescently labeled DNA, we monitor the loss of fluorescence polarization upon addition of high concentrations of NAD^+ (2 mM) as the labeled DNA is released from the PARylated PARPs (Fig. 1a).
(§2) Intuitively one might expect the observed rate of release of labeled DNA to reflect the slow dissociation of PARPi from the complex (koff; see Fig. 1a). However, the kinetics are actually more complex as there is competition between the inhibitor re-binding (kon[I]) and the binding of, and reaction with, NAD^+ (k2[NAD^+]) (Fig. 1a).
(§3) Next, 10 µL of PARP1 or PARP2 (10 nM) premixed with fluorescein labeled p18mer DNA (5 nM), was added to the various dilutions of PARPi and then incubated for 30 min to ensure complete association. Dissociation of labeled DNA was initiated by addition of 10 µL of NAD^+ (2 mM). […] We emphasize that the same correction is applied to the data for all PARPi. […] We can use the KI (derived from the slope of the replot, Fig. 2) and the minimal koff to calculate a minimal kon (KI = koff/kon, Supplementary Table 2).

PARP2 [4] = target: T1, PARP2; test: as above; type: biochemical
Procedure: as §1, §2, §3

PARP1 [5] = target: T2, PARP1; details: cited from earlier work
[6] = PARP1, +HPF1, single experiment
[7] = PARP1, without HPF1, single experiment
[8] = PARP2, +HPF1, single experiment
[9] = PARP2, without HPF1 (apo), single experiment

CC1=CC(C)=[N+]2C1=Cc1ccc(CCC(=O)N3CCN(C(=O)c4cc(Cc5n[nH]c(=O)c6ccccc56)ccc4F)CC3)n1[B-]2(F)F [fl-Ola]
Off (individual replicates) (PARP2 [1]; PARP2, Nuc147): 0.000128 per sec and 0.000098 per sec and 0.000096 per sec and 0.000087 per sec | On (individual replicates) (PARP2 [1]; PARP2, Nuc147): 0.06047 and 0.0458 and 0.0509 and 0.06962 | On average (PARP2 [1]; PARP2, Nuc147): 5.7 per uM per sec | Off (individual replicates) (PARP2 [1]; PARP2, Nuc147/HPF1): 0.000060 per sec and 0.000066 per sec and 0.000047 per sec | On (individual replicates) (PARP2 [1]; PARP2, Nuc147/HPF1): 0.02342 and 0.02572 and 0.02231 and 0.02096 | On average (PARP2 [1]; PARP2, Nuc147/HPF1): 2.3 per uM per sec | Kd (PARP2 [1]; PARP2, Nuc165): 0.018 ± 0.0046 nM | Kd (PARP2 [1]; PARP2, Nuc165/HPF1): 0.0249 ± 0.0047 nM | Kd (PARP2 [1]; PARP2, p18mer): 0.0141 ± 0.0039 nM | Off (individual replicates) (PARP2 [1]; PARP2, p18mer): 0.000127 per sec and 0.000133 per sec and 0.000111 per sec and 0.000117 per sec | Off average (PARP2 [1]; PARP2, p18mer): 0.44 per hr | On (individual replicates) (PARP2 [1]; PARP2, p18mer): 0.06673 and 0.08057 and 0.1117 | On average (PARP2 [1]; PARP2, p18mer): 8.6 per uM per sec | Kd (PARP2 [1]; PARP2, p18mer/HPF1): 0.0205 ± 0.0048 nM | Off (individual replicates) (PARP2 [1]; PARP2, p18mer/HPF1): 0.000135 per sec and 0.000112 per sec and 0.000093 per sec | On (individual replicates) (PARP2 [1]; PARP2, p18mer/HPF1): 0.06627 and 0.04795 and 0.05623 and 0.05079 | On average (PARP2 [1]; PARP2, p18mer/HPF1): 5.5 per uM per sec | off rate (single run) (PARP1 [2]; PARP1, Nuc165): 0.004215 per min and 0.004911 per min and 0.004071 per min and 0.00473 per min and 0.004639 per min | on rate average (PARP1 [2]; PARP1, Nuc165): 2.17 per uM per sec | off rate (single run) (PARP1 [2]; PARP1, Nuc165+HPF1): 0.001434 per min and 0.001853 per min and 0.001613 per min and 0.002575 per min and 0.002863 per min | on rate (observed, single run) (PARP1 [2]; PARP1, Nuc165+HPF1): 0.03904 and 0.05638 and 0.0311 and 0.04561 and 0.04092 and 0.03175 and 0.05953 | on rate average (PARP1 [2]; PARP1, Nuc165+HPF1): 4.35 per uM per sec | off rate (single run) (PARP1 [2]; PARP1, buffer): 0.001297 per min and 0.001272 per min and 0.001404 per min and 0.001129 per min | on rate (observed, single run) (PARP1 [2]; PARP1, buffer): 0.002763 and 0.003297 and 0.003517 and 0.004488 and 0.003954 and 0.005011 and 0.004368 and 0.00415 | on rate average (PARP1 [2]; PARP1, buffer): 0.39 per uM per sec | off rate (single run) (PARP1 [2]; PARP1, p18mer): 0.005934 per min and 0.004771 per min and 0.005583 per min and 0.004919 per min and 0.005548 per min | on rate average (PARP1 [2]; PARP1, p18mer): 1.27 per uM per sec | off rate (single run) (PARP1 [2]; PARP1, p18mer+HPF1): 0.002334 per min and 0.002172 per min and 0.002936 per min and 0.003134 per min and 0.003344 per min | on rate (observed, single run) (PARP1 [2]; PARP1, p18mer+HPF1): 0.02205 and 0.01731 and 0.01849 and 0.01852 and 0.01515 and 0.01847 and 0.02629 | on rate average (PARP1 [2]; PARP1, p18mer+HPF1): 1.95 per uM per sec

COC1CCN(C(=O)c2cc(Cc3n[nH]c(=O)c4ccccc34)ccc2F)CC1 [AZD]
koff (est) average (PARP1 [3]; PARP1, +HPF1, average): ≥ 0.00058 s⁻¹ | t1/2est average (PARP1 [3]; PARP1, +HPF1, average): 20.75 min | Ki (PARP1 [3]; PARP1, +HPF1, average, read-out: Ki average): 0.78 nM | slope (PARP1 [3]; [6]): 49 s/nM and 51 s/nM and 67.1 s/nM and 43 s/nM | t1/2est (PARP1 [3]; [6]): 17 min and 20 min and 29 min | Ki (PARP1 [3]; PARP1, +HPF1, single experiment, read-out: Ki): 0.82 nM and 0.78 nM and 0.6 nM and 0.93 nM | kon ratio (PARP1 [3]; PARP1, ratio of averages with and without HPF1): 1.75 | Ki ratio (PARP1 [3]; PARP1, ratio of averages without and with HPF1): 2.85 | koff (est) average (PARP1 [3]; PARP1, without HPF1, average): ≥ 0.00295 s⁻¹ | t1/2est average (PARP1 [3]; PARP1, without HPF1, average): 4.72 min | Ki (PARP1 [3]; PARP1, without HPF1, average, read-out: Ki average): 2.23 nM | slope (PARP1 [3]; [7]): 9.4 s/nM and 16.4 s/nM and 15.8 s/nM and 16.1 s/nM and 10.2 s/nM and 11.0 s/nM | Ki (PARP1 [3]; PARP1, without HPF1, single experiment, read-out: Ki): 2.96 nM and 1.69 nM and 1.76 nM and 1.73 nM and 2.72 nM and 2.53 nM

NC(=O)c1cccc2[nH]c(-c3ccc([C@@H]4CCCN4)cc3F)nc12 [A-966492]
t1/2est average (PARP1 [3]; PARP1, +HPF1, average): 38.5 min | slope (PARP1 [3]; [6]): 149 s/nM and 124 s/nM and 110 s/nM | t1/2est (PARP1 [3]; [6]): 39 min and 37.5 min | t1/2est average (PARP1 [3]; PARP1, without HPF1, average): 4.58 min | slope (PARP1 [3]; [7]): 34.7 s/nM and 49.9 s/nM and 38.6 s/nM | t1/2est (PARP1 [3]; [7]): 4.75 min and 4.5 min

O=C(c1cc(Cc2n[nH]c(=O)c3ccccc23)ccc1F)N1CCN(C(=O)C2CC2)CC1 [Olaparib]
t1/2est (PARP2 [4]): 4.17 min and 4.5 min and 3 min and 5.5 min and 4 min and 2.83 min | t1/2est average (PARP2 [4]): 4.05 min and 4.08 min

NC(=O)c1ccc(I)c([N+](=O)[O-])c1 [iniparib]
Inhibition of DNA release from PARP1 (PARP1 [3]; PARP1, 20-2500 nM): not an inhibitor of PARP1; also recorded: does not have this effect

C[C@]1(c2nc3c(C(N)=O)cccc3[nH]2)CCCN1 [Veliparib]
PARP-trapping (PARP1 [5]): weak

NC(=O)c1cccc2cn(-c3ccc([C@@H]4CCCNC4)cc3)nc12 [Nira]
t1/2est average (PARP1 [3]; PARP1, +HPF1, average): 28.33 min | slope (PARP1 [3]; [6]): 60.3 s/nM and 61 s/nM and 66.7 s/nM | t1/2est (PARP1 [3]; [6]): 29 min and 28 min | t1/2est average (PARP1 [3]; PARP1, without HPF1, average): 8.7 min | t1/2est (PARP1 [3]; [7]): 5.5 min and 11 min and 9.5 min and 8 min

COC1CCN(C(=O)c2cc(Cc3n[nH]c(=O)c4ccccc34)ccc2F)CC1 [AZD-2461]
Fold (t-test) (PARP1 [3]; PARP1, fold-difference in Ki caused by the addition of HPF1): 2.9 ** fold | Ki (PARP1 [3]; PARP1 alone, p18mer DNA, 2 mM NAD+, read-out: Ki): 2.2 ± 0.6 nM

CNCc1ccc(-c2[nH]c3cc(F)cc4c3c2CCNC4=O)cc1 [Rucaparib]
PARP-trapping (PARP1 [5]): strong | t1/2est average (PARP1 [3]; PARP1, +HPF1, average): 250 min | t1/2est (PARP1 [3]; [6]): 250 min | t1/2est average (PARP1 [3]; PARP1, without HPF1, average): 57.5 min

Cn1ncnc1[C@H]1c2n[nH]c(=O)c3cc(F)cc(c23)N[C@@H]1c1ccc(F)cc1 [Tala]
t1/2est average (PARP2 [4]; PARP2, +HPF1, average): 9.17 min | slope (PARP2 [4]; [8]): 91 s/nM and 65 s/nM | t1/2est (PARP2 [4]; [8]): 11 min and 10 min and 6.5 min | slope (PARP2 [4]; [9]): 180 s/nM and 131 s/nM and 191 s/nM | t1/2est (PARP2 [4]; [9]): 7.5 min and 6.5 min | t1/2est average (PARP2 [4]; PARP2, without HPF1, average): 6.83 min | t1/2est average (PARP1 [3]; PARP1, +HPF1, average): >333.33 min | t1/2est (PARP1 [3]; [6]): 333.33 min | t1/2est average (PARP1 [3]; PARP1, without HPF1, average): 121.7 min | slope (PARP1 [3]; [7]): 1743 s/nM and 2697 s/nM and 2953 s/nM and 2451 s/nM | t1/2est (PARP1 [3]; [7]): 138.5 min and 95.83 min and 118.5 min and 134 min
